Assay results published in BindingDB's records for doi:10.1016/j.bmcl.2015.06.096 (Vanderbilt University Medical Center, 2015).

Target: Metabotropic glutamate receptor 5 (Homo sapiens, UniProt P41594)
Assay: Positive allosteric modulation of human mGlu5 receptor expressed in HEK293 cells by calcium mobilization assay

Chain of Metabotropic glutamate receptor 5 (P41594 whole entry): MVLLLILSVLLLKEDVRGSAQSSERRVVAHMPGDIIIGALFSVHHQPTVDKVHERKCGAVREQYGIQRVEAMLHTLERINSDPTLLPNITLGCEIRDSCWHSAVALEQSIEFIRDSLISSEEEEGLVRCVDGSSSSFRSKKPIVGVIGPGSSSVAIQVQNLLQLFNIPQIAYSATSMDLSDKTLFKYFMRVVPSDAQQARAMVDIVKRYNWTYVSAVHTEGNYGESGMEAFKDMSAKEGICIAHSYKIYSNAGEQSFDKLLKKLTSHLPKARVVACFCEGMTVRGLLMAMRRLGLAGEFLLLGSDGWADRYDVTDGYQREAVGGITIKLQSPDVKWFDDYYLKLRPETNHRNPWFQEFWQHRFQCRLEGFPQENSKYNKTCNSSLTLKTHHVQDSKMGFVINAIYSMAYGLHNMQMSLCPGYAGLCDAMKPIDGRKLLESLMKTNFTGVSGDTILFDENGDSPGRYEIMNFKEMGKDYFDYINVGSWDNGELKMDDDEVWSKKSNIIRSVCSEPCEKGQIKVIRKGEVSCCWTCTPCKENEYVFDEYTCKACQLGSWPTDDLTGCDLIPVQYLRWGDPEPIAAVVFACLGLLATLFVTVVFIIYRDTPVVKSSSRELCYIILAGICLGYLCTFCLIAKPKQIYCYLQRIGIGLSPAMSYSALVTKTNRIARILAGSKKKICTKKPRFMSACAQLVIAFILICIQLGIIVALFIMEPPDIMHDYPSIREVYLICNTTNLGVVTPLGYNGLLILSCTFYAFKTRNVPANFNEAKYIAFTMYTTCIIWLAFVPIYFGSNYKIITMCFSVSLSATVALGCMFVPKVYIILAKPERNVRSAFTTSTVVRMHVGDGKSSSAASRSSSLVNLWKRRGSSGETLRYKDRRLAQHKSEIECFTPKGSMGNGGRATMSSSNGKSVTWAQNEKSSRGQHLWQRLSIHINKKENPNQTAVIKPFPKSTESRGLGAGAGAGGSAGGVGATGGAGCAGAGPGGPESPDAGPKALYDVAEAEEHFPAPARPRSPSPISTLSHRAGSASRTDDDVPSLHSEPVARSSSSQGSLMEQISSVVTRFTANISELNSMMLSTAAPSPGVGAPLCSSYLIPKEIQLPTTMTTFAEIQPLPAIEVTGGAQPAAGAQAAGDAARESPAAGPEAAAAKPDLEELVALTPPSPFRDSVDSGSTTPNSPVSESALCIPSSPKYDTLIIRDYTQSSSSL

- EC50: 323 nM
Structure (SMILES): O=C(c1c(F)cccc1F)N1CCc2nc(COc3cccc(F)c3)oc2C1
